Data: US11191855B2, “1,7-diaryl-1,6-heptadiene-3,5-dione derivatives, methods for the production and use thereof” (UNIVERSITÄTSKLINIKUM REGENSBURG, priority 2015, dated 2021)
Read-outs that look alike come from different tables or passages of the source.

Experiments:
S. aureus ATCC 25923 = experiment: Phototoxicity test c.2) (BlueV light source, emission maximum approx. 420 nm, CFU count); type: cell-based, Staphylococcus aureus; conditions: Staphylococcus aureus, ATCC25923, light or radiation study, 5 min, irradiation 5 minutes, approx. 420 nm, 17.5 mW/cm^2, 5.3 J/cm^2, vs reference control; for log reduction at 10 µM: read-out: Effectiveness against S. aureus: Reduction in CFU in log10 at concentration of 10 μM; for log reduction at 50 µM: read-out: Effectiveness against S. aureus: Reduction in CFU in log10 at concentration of 50 μM
Procedure: A sample of the bacterial cell Staphylococcus. aureus (ATCC number: 25923) or Escherichia. coli (ATCC number: 25922) was removed from a cryo-freeze culture and cultured under aerobic conditions at 37° C. and 175 rpm overnight in an orbital shaker (MAXQ4000, Thermo Scientific, Dubuque, Iowa, USA). Growth was carried out in 20 mL Todd-Hewitt broth (Carl Roth, Karlsruhe, Germany) supplemented with 0.3% of yeast extract (AppliChem, Darmstadt, Germany). In a second experiment, the photosensitizers (PS) used were dissolved in Millipore water and adjusted to various concentrations. 25 μL of a bacterial suspension grown overnight ( 108/mL) was incubated with 25 μL of photosensitizer solution of the various concentrations at room temperature for 10 seconds in darkness in a 96-well plate. Next, the suspension was irradiated for 5-20 minutes. For the irradiation, the light source BlueV from […], Germany) was used, which emits light from 380 to 480 nm (emission maximum at approximately 420 nm). The applied energy density was 17.5 mW/cm^2. Each experiment was accompanied by three controls in order to exclude side effect of the irradiation/photosensitizer (PS) on the survival of the bacteria: (i) no PS, only light (=light control), (ii) no light, only PS (=dark control) and (iii) neither light nor PS (=reference control). […] All of the tests were carried out four times. […] All of the remaining PS were tested against S. aureus ATCC 25923 (FIGS. 24-33). FIGS. 21-33 show the logarithmic reduction after illumination with respect to the reference control. […] The irradiation period was 5 minutes (emission maximum at approximately 420 nm) for an applied intensity of 17.5 mW/cm^2, i.e. an applied light energy (dosage) of 5.3 J/cm^2. The average reference control (arithmetic mean with standard deviation) (no light, no PS) was 3.9×10^8/mL. The logarithmic reduction after illumination is shown with respect to the reference control.

E. coli ATCC 25922 = experiment: Phototoxicity test c.1) (LED array 430-435 nm, CFU count by Miles and Misra); type: cell-based, Escherichia coli; conditions: Escherichia coli, ATCC25922, light or radiation study, light dose 33.8 J/cm^2, approx. 435 nm, 60 min at 9.4 mW/cm^2, vs reference control; for log reduction at 10 µM: read-out: Effectiveness against E. Coli: Reduction in CFU in log10 at concentration of 10 μM; for log reduction at 50 µM: read-out: Effectiveness against E. Coli: Reduction in CFU in log10 at concentration of 50 μM
Procedure: A sample of the bacterial cell Staphylococcus. aureus (ATCC number: 25923) or Escherichia. coli (ATCC number: 25922) was removed from a cryo-freeze culture and cultured under aerobic conditions at 37° C. and 175 rpm overnight in an orbital shaker (MAXQ4000, Thermo Scientific, Dubuque, Iowa, USA). Growth was carried out in 20 mL Todd-Hewitt broth (Carl Roth, Karlsruhe, Germany) supplemented with 0.3% of yeast extract (AppliChem, Darmstadt, Germany).
Subsequently, dilutions (0, 5, 10, […] and 20% v/v of the overnight culture) and their absorptions were measured at 600 nm in triplicate for 100 μL (Infinite 200 M Pro, Tecan, Mannedorf, Switzerland). A calibration graph (Microsoft Excel) was used to calculate the volume which was required to produce 20 mL of a culture with an absorption of 0.05 at 600 nm. The volume calculated for the overnight culture was topped up with Todd-Hewitt broth (composition as above) to 20 mL and incubated for two hours at 37° C. with constant movement (175 rpm, MAXQ4000). The cultures were then in the exponential growth phase; the absorption at 600 nm was between 0.3 and 0.45.
A 2-hour culture was divided into 1800 μL aliquots. After centrifuging at 20° C., 830 rcf, 5 min (5417R centrifuge, Eppendorf, Hamburg, Germany), the pellets were re-suspended in phosphate buffer (Dulbeccos' Modified Phosphate Saline, DPBS, Sigma-Aldrich) with either 10 or 50 μM of the corresponding photosensitizer, wherein the final volume was kept at 1800 μL.
The solutions obtained were immediately incubated on the orbital shaker (see above for parameters) for 5 or 25 minutes.
Three controls were run at the same time for each photosensitizer. The “light only” control contained DPBS without photosensitizer. The “photosensitizer only” (“PS only”) control was incubated like the PDI samples, but not irradiated and kept strictly in darkness. A further control (double negative, “Co−/−”), received neither light nor photosensitizer.
After the incubation, duplicates of the samples (500 μL each) were transferred into a 24-well microtitre plate (Cellstar, Greiner Bio-One, Frickenhausen, Germany). The “PS only” and “Co −/−” samples were placed in their own microtitre plate which was packed in aluminium foil so as to be lightproof.
The irradiation was carried out under constant shaking (MTS4, IKA, Staufen, Germany, 175 rpm) from below on a LED array with maximum homogeneity of the lighting surface. All of the controls were shaken in the same manner. The technical data for the light source are shown in Table 2; the total dose of light applied was 33.8 J/cm^2.
The determination of the colony forming units (CFU) was carried out in accordance with the method published by Miles and Misra (Miles, A A; Misra, S S, Irwin, J O (1938 Nov.). “The estimation of the bactericidal power of the blood” The Journal of hygiene 38 (6): 732-49). In this regard, serial dilutions (1:10) of the corresponding bacterial suspension were produced in DPBS. 5×10 μL of each bacterial dilution was then dripped onto Todd-Hewitt plates (with broth, additional 1.5% agar (Agar-Agar, Kobe I, Roth, Karlsruhe, Germany) and incubated at 37° C. for 24 h. Next, the number of surviving colony forming units was determined. All of the tests were carried out four times.
The photosensitizers were tested against the bacterial strain E. coli ATCC 25922. FIGS. 1-20 show the measured surviving colony forming units (CFU).
The average reference control (arithmetic mean with standard deviation) (no light, no PS) was 3.6×10^8/mL. The logarithmic reduction after illumination is shown with respect to the reference control. The respective upper value, indicated by a *, refers to an incubation period of 5 min and the respectively lower value, indicated by a #, refers to an incubation period of 25 min.

[1] = 5 min, incubation period 5 min (upper value, *)
[2] = 25 min, incubation period 25 min (lower value)

SMILES | log reduction at 10 µM (S. aureus ATCC 25923) | log reduction at 50 µM (S. aureus ATCC 25923) | log reduction at 10 µM (E. coli ATCC 25922; [1]) | log reduction at 50 µM (E. coli ATCC 25922; [1]) | log reduction at 10 µM (E. coli ATCC 25922; [2]) | log reduction at 50 µM (E. coli ATCC 25922; [2])
Cl.Cl.Cl.Cl.NCCOc1ccc(/C=C/C(=O)CC(=O)/C=C/c2ccc(OCCN)c(OCCN)c2)cc1OCCN [Curcumin 03 hydrochloride] | > 4 | > 5 | > 7 | > 7 | > 7 | > 7
COc1cc(/C=C/C(=O)CC(=O)/C=C/c2ccc(OCCN)c(OC)c2)ccc1OCCN.Cl.Cl [Curcumin 01a hydrochloride] | > 3 | > 5 | > 1 | > 5 | > 2 | > 5
